The record followed here is patent publication US20090111801A1, “SUBSTITUTED PYRAZINONE DERIVATIVES FOR USE AS A MEDICINE” (Janssen Pharmaceutica N.V., priority 2006, published 2009).

In one test the target is T1, hα2A receptor (Homo sapiens, UniProt P08913).
T1 construct: expressed in transfected cells; host or cells: CHO cells, stably transfected; membrane preparation
T1 sequence (P08913 1-465): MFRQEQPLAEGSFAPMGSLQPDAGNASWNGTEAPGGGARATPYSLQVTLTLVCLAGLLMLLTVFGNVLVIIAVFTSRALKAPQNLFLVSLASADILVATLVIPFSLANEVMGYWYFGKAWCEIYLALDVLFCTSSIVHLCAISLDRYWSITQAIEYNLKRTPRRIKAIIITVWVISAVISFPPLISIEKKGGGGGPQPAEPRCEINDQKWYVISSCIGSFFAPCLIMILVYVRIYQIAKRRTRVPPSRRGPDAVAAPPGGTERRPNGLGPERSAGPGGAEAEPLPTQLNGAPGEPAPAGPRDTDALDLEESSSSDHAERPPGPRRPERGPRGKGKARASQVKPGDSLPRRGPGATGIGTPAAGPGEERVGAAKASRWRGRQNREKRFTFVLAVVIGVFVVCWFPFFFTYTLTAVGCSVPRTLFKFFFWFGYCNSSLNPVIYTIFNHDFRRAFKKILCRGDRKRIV
Nature of the test: Radioligand binding experiment for α2A-adrenoceptor ([3H]raulwolscine, CHO cell membranes). Particulars: [3H]raulwolscine binding; for IC50: read-out: h-α2A pIC50 (converted).

Another test has as its target T2, hα2C receptor (Homo sapiens, UniProt P18825).
T2 construct: expressed in transfected cells; host or cells: CHO cells, stably transfected; membrane preparation
T2 sequence (P18825 1-462): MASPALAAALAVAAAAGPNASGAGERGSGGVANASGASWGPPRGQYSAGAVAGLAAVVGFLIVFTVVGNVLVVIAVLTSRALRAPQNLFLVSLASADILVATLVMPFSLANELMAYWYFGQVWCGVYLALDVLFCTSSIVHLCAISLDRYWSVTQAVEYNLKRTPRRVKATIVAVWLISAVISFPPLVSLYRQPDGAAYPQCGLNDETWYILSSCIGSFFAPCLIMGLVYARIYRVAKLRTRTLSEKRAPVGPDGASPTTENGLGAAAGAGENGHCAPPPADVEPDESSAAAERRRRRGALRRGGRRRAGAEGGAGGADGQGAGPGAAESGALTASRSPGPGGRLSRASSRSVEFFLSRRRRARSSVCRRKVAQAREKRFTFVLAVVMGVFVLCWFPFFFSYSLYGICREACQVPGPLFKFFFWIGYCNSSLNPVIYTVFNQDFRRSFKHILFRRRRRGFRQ
Nature of the test: Radioligand binding experiment for α2C-adrenoceptor ([3H]raulwolscine, CHO cell membranes). Particulars: [3H]raulwolscine binding; for IC50: read-out: h-α2C pIC50 (converted).

A further test deals with T3, 5HT-Transporter (Homo sapiens, UniProt P31645).
T3 construct: Human platelet membranes (Oceanix Biosciences Corporation, Hanover, Md., USA) were thawed; tissue Oceanix Biosciences Corporation, Hanover, Md., USA; host or cells: human platelet membranes
Description: Binding experiment for the 5HT-transporter ([3H]paroxetine, human platelet membranes). The note with it: [3H]paroxetine 0.5 nM; for IC50: read-out: h-5HTT pIC50 (converted). The method in brief: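 Competition binding of [3H]paroxetine to human platelet membranes in Tris-HCl 50 mM, 120 mM NaCl, 5 mM KCl, with filtration and scintillation counting.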

T3 sequence (P31645 whole entry): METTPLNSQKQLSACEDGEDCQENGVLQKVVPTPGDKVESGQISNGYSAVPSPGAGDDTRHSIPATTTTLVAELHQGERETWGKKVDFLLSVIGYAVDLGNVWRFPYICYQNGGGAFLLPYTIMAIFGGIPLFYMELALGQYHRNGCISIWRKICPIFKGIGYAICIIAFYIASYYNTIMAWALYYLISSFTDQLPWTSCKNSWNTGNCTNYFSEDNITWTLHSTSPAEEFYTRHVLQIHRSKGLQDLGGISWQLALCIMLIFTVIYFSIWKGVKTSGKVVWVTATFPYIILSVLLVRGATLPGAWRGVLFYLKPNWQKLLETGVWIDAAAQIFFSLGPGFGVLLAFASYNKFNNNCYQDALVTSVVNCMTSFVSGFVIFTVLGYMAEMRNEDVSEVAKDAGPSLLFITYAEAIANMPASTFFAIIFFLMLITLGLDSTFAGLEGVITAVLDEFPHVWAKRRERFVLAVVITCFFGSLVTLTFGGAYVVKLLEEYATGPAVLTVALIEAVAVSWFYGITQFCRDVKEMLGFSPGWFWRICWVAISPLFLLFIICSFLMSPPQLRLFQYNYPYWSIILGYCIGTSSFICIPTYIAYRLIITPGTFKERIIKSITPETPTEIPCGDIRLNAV

With `COC(=O)c1ccc(-n2ccnc(NC3CCN(C/C(C)=C/c4ccccc4)CC3)c2=O)cc1` [3-12], the IC50 was 0.0316 µM at hα2A receptor, 0.0158 µM at hα2C receptor and 0.501 µM on 5HT-Transporter.

As for `COc1cc(CNC(=O)Cn2ccnc(NC3CCN(C/C(C)=C/c4ccccc4)CC3)c2=O)cc(OC)c1` [1-65], the IC50 at hα2A receptor is 0.1 µM; at hα2C receptor, 0.00398 µM; on 5HT-Transporter, 0.794 µM.

Consider `CCOC(=O)N1CCC(NCc2ccc(-n3ccnc(NC4CCN(C/C(C)=C/c5ccccc5)CC4)c3=O)cc2)CC1` [1-128], for which the “h-α2A pIC50” value on hα2A receptor is listed as 7.0. Besides, the “h-α2C pIC50” value on hα2C receptor is recorded as 7.9. Also, at 5HT-Transporter, the “h-5HTT pIC50” value was determined as 5.9.

For `C/C(=C\c1ccccc1)CN1CCC(Nc2nccn(-c3cccc(Nc4ccc(F)cc4)c3)c2=O)CC1` [1-43], the IC50 was 0.0126 µM on hα2A receptor, 0.00316 µM at hα2C receptor and 0.0501 µM on 5HT-Transporter.

For the compound `C/C(=C\c1ccccc1)CN1CCC(Nc2nccn(-c3cccc(CNCC4CCCO4)c3)c2=O)CC1` (stereo not drawn) [1-145], the figures for the IC50 on hα2A receptor, at hα2C receptor and on 5HT-Transporter were 0.02 µM, 0.00126 µM and 0.794 µM, respectively.

For `CCCC(=O)NCc1ccc(Cn2ccnc(NC3CCN(C/C(C)=C/c4ccccc4)CC3)c2=O)cc1` [1-31], the IC50 at hα2A receptor is 0.2 µM; at hα2C receptor, 0.0501 µM; on 5HT-Transporter it was 0.794 µM.

`C/C(=C\c1ccccc1)CN1CCC(Nc2nccn(Cc3ccc(CNC(=O)NCc4ccccc4)cc3)c2=O)CC1` [1-124]: the IC50 is 0.251 µM at hα2A receptor, 0.0631 µM at hα2C receptor and 0.501 µM on 5HT-Transporter.

Consider `C/C(=C\c1ccccc1)CN1CCC(Nc2nccn(-c3cccc(NS(=O)(=O)Cc4ccccc4)c3)c2=O)CC1` [1-166], for which the IC50 at hα2A receptor was 0.0631 µM; at hα2C receptor, 0.0126 µM; at 5HT-Transporter, 0.316 µM.

With `C/C(=C\c1ccccc1)CN1CCC(Nc2nccn(CC(=O)N(CCCn3ccnc3)Cc3ccc(F)cc3)c2=O)CC1` [1-143], the results for the IC50 at hα2A receptor, at hα2C receptor and at 5HT-Transporter were 0.0794 µM, 0.00316 µM and 2 µM, respectively.

As for `C/C(=C\c1ccccc1)CN1CCN(c2nccn(Cc3ccc(Cl)s3)c2=O)CC1` [13-2], the IC50 is 0.0794 µM at hα2A receptor, 0.0398 µM at hα2C receptor and 3.98 µM at 5HT-Transporter.

With `C/C(=C\c1ccccc1)CN1CCC(Nc2nccn(CC(=O)N3CCN(c4ccc(C)c(C)c4)CC3)c2=O)CC1` [2-29], the IC50 on hα2A receptor is 0.158 µM; on hα2C receptor, 0.0316 µM; at 5HT-Transporter, 0.1 µM.

Consider `O=c1c(NC2CCN(C/C=C/c3ccccc3)CC2)nccn1Cc1ccc2ccccc2c1` [16-18], for which the IC50 at hα2A receptor was 0.251 µM; at hα2C receptor it was 0.251 µM; at 5HT-Transporter, 0.398 µM.

Consider `C/C(=C\c1ccccc1)CN1CCC(Nc2nccn(Cc3ccncc3)c2=O)CC1` [6-14], for which the IC50 on hα2A receptor was 0.158 µM; at hα2C receptor, 0.0398 µM; at 5HT-Transporter, 2.51 µM.

`C/C(=C\c1ccccc1)CN1CCC(Nc2nccn(-c3cccc(N(Cc4ccccc4)c4ccccc4)c3)c2=O)CC1` [1-70]: the values for the IC50 on hα2A receptor, on hα2C receptor and on 5HT-Transporter were 0.0316 µM, 0.02 µM and 0.158 µM, respectively.

Take `COCCN(C)C(=O)Cn1ccnc(NC2CCN(C/C(C)=C/c3ccccc3)CC2)c1=O` [1-24]: the IC50 was 0.126 µM on hα2A receptor, 0.00794 µM on hα2C receptor and 3.16 µM on 5HT-Transporter.

Consider `C/C(=C\c1ccccc1)CN1CCN(c2nccn(CC3CCCCC3)c2=O)CC1` [14-3], for which the IC50 is 0.398 µM on hα2A receptor, 0.158 µM at hα2C receptor and 7.94 µM on 5HT-Transporter.

Consider `C/C(=C\c1ccccc1)CN1CCC(Nc2nccn(CCC(N)=O)c2=O)CC1` [1-3], for which the IC50 was 0.2 µM at hα2A receptor, 0.0316 µM at hα2C receptor and greater than 10 µM at 5HT-Transporter.

For the compound `C/C(=C\c1ccccc1)CN1CCC(Nc2nccn(-c3ccc(C(=O)N4CCN(CCc5ccccc5)CC4)cc3)c2=O)CC1` [2-33], the figures for the IC50 at hα2A receptor, at hα2C receptor and on 5HT-Transporter were 0.126 µM, 0.0158 µM and 0.2 µM, respectively.

Regarding `C/C(=C\c1ccccc1)CN1CCC(Nc2nccn(-c3ccc(NC(=O)Cc4ccccc4)cc3)c2=O)CC1` [1-81], the IC50 was 0.2 µM at hα2A receptor, 0.0251 µM at hα2C receptor and 0.2 µM on 5HT-Transporter.

In the case of `CSc1ccc(-n2ccnc(NC3CCN(C/C(C)=C/c4ccccc4)CC3)c2=O)cc1` [4-2], the results for the IC50 at hα2A receptor, on hα2C receptor and at 5HT-Transporter were 0.0126 µM, 0.00631 µM and 0.158 µM, respectively.

`C/C(=C\c1ccccc1)CN1CCC(Nc2nccn(Cc3csc(C)n3)c2=O)CC1` [6-7]: the figures for the IC50 on hα2A receptor, on hα2C receptor and on 5HT-Transporter were 0.251 µM, 0.0398 µM and 2 µM, respectively.

In the case of `CCN(CC)C(=O)NCc1ccc(-n2ccnc(NC3CCN(C/C(C)=C/c4ccccc4)CC3)c2=O)cc1` [1-117], the “h-α2A pIC50” value at hα2A receptor came to 6.7. For the same compound, the “h-α2C pIC50” value at hα2C receptor was determined as 8.3. For the same compound, the “h-5HTT pIC50” value at 5HT-Transporter was determined as 6.3.

For the compound `COc1ccc(CNC(=O)Cn2ccnc(NC3CCN(C/C(C)=C/c4ccccc4)CC3)c2=O)cc1` [1-64], the IC50 was 0.251 µM at hα2A receptor, 0.0126 µM at hα2C receptor and 1.58 µM on 5HT-Transporter.

As for `C/C(=C\c1ccccc1)CN1CCC(Nc2nccn(CC(=O)N3CCC(O)(c4ccccc4)CC3)c2=O)CC1` [2-14], the IC50 on hα2A receptor was 0.126 µM; at hα2C receptor it was 0.00794 µM; at 5HT-Transporter it was 5.01 µM.

For the compound `C/C(=C\c1ccccc1)CN1CCC(Nc2nccn(-c3ccc(C(=O)N4CCC(N(C)C)C4)cc3)c2=O)CC1` (stereo not drawn) [2-2], the IC50 on hα2A receptor is 0.0631 µM; at hα2C receptor, 0.00501 µM; at 5HT-Transporter, 0.398 µM.

Regarding `O=c1c(NC2CCN(C/C=C/c3ccccc3)CC2)nccn1CCN1CCOCC1` [16-7], the IC50 is 3.98 µM at hα2A receptor, 0.398 µM at hα2C receptor and greater than 10 µM at 5HT-Transporter.

In the case of `C/C(=C\c1ccccc1)CN1CCC(Nc2nccn(CCCNC(=O)Nc3ccccc3)c2=O)CC1` [1-119], the values for the IC50 on hα2A receptor, at hα2C receptor and at 5HT-Transporter were 0.158 µM, 0.00501 µM and 0.158 µM, respectively.

Regarding `C/C(=C\c1ccccc1)CN1CCC(Nc2nccn(Cc3ccccc3C)c2=O)CC1` [5-10], the IC50 on hα2A receptor is 0.0794 µM; at hα2C receptor, 0.0251 µM; on 5HT-Transporter it was 0.398 µM.

With `C/C(=C\c1ccccc1)CN1CCC(Nc2nccn(-c3ccc(C(=O)N4CCN(c5ncccn5)CC4)cc3)c2=O)CC1` [2-34], the IC50 on hα2A receptor is 0.1 µM; on hα2C receptor, 0.00501 µM; at 5HT-Transporter, 0.631 µM.

Consider `C/C(=C\c1ccccc1)CN1CCC(Nc2nccn(-c3cccc(CN4CCCCC4)c3)c2=O)CC1` [2-9], for which the IC50 at hα2A receptor was 0.000631 µM; at hα2C receptor, 0.0002 µM; at 5HT-Transporter it was 0.2 µM.

In the case of `CCCCS(=O)(=O)NCc1ccc(Cn2ccnc(NC3CCN(C/C(C)=C/c4ccccc4)CC3)c2=O)cc1` [1-157], the IC50 at hα2A receptor was 0.251 µM; at hα2C receptor, 0.0501 µM; at 5HT-Transporter it was 1 µM.

For the compound `C=CCN1CCN(C(=O)c2ccc(-n3ccnc(NC4CCN(C/C(C)=C/c5ccccc5)CC4)c3=O)cc2)CC1` [2-25], the IC50 at hα2A receptor is 0.126 µM; on hα2C receptor, 0.00794 µM; on 5HT-Transporter it was 0.501 µM.

Take `C/C(=C\c1ccccc1)CN1CCC(Nc2nccn(CC(=O)c3ccccc3)c2=O)CC1` [5-29]: the IC50 on hα2A receptor is 0.0158 µM; at hα2C receptor, 0.01 µM; at 5HT-Transporter it was 0.794 µM.

As for `COCCN(C)Cc1cccc(-n2ccnc(NC3CCN(C/C(C)=C/c4ccccc4)CC3)c2=O)c1` [1-25], the IC50 at hα2A receptor was 0.00501 µM; on hα2C receptor, 0.001 µM; at 5HT-Transporter, 1.58 µM.

With `C/C(=C\c1ccccc1)CN1CCC(Nc2nccn(CCCNS(=O)(=O)c3ccccc3)c2=O)CC1` [1-158], the values for the IC50 on hα2A receptor, on hα2C receptor and at 5HT-Transporter were 0.1 µM, 0.00631 µM and 0.158 µM, respectively.

Consider `C/C(=C\c1ccccc1)CN1CCC(Nc2nccn(-c3ccc(CO)cc3)c2=O)CC1` [3-3], for which the “h-α2A pIC50” value at hα2A receptor came to 6.8. Moreover, the “h-α2C pIC50” value at hα2C receptor is reported as 7.8. Besides, at 5HT-Transporter, the “h-5HTT pIC50” value was determined as 5.2.

For `C/C(=C\c1ccccc1)CN1CCC(Nc2nccn(CC(=O)N3CCN(C)CC3)c2=O)CC1` [2-20], the IC50 at hα2A receptor is 0.0631 µM; on hα2C receptor, 0.00316 µM; on 5HT-Transporter, 2.51 µM.

With `CC(=O)CN(C)CCCn1ccnc(NC2CCN(C/C(C)=C/c3ccccc3)CC2)c1=O` [1-38], the values for the IC50 at hα2A receptor, on hα2C receptor and at 5HT-Transporter were 0.316 µM, 0.0126 µM and 7.94 µM, respectively.
